Test results reported in article PMC6232145, “Intrinsic disorder in the regulatory N-terminal domain of diacylglycerol acyltransferase 1 from Brassica napus” (Scientific Reports, 2018).

Columns and labels:
[1] = target: T1, Brassica napus diacylglycerol acyltransferase 1 (BnaDGAT1, isoform BnaC.DGAT1.a) (Brassica napus, UniProt Q9M4V2); assay: ITC ([…] stoichiometry); supported by CD; format: binding
T1 construct: gene DGAT1-4; BnaDGAT1_1-113, cytoplasmic N-terminal domain (residues 1-113), N-terminal 10 x His-tag
T1 sequence (Q9M4V2 1-113): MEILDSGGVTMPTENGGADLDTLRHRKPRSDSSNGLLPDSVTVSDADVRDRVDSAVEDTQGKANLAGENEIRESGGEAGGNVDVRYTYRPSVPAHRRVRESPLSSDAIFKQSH

[2] = target: T1, Brassica napus diacylglycerol acyltransferase 1 (BnaDGAT1, isoform BnaC.DGAT1.a); assay: ITC ([…] stoichiometry); supported by thermal shift (about […] degree Tm increase) and CD; format: binding

SMILES | Kd [1] [µM] | Kd [2] [µM]
CC(C)(COP(=O)(O)OP(=O)(O)OC[C@H]1O[C@@H](n2cnc3c(N)ncnc32)[C@H](O)[C@@H]1OP(=O)(O)O)[C@@H](O)C(=O)NCCC(=O)NCCS [CoA] | 60 ± 10 | 
CCCCCCCC/C=C\CCCCCCCC(=O)SCCNC(=O)CCNC(=O)[C@H](O)C(C)(C)COP(=O)(O)OP(=O)(O)OC[C@H]1O[C@@H](n2cnc3c(N)ncnc32)[C@H](O)[C@@H]1OP(=O)(O)O [oleoyl-CoA] |  | 10 ± 0.01
